{"source": "paper PMC11999280", "about": "“Design and screening of novel endosomal escape compounds that enhance functional delivery of oligonucleotides in vitro” (Molecular Therapy. Nucleic Acids, 2025)", "format_in_all_cases": "cell-based", "key": {"[1]": {"tested_on": "mCherry-GAL9 expressing HEK293 cells", "assay": "GAL9 recruitment assay, HEK293", "details": "calculated mean from >3 independent exp.", "in_short": "(§1)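 Readout is GAL9 relocalization to damaged endosomes, scored as mCherry-GAL9 structures counted in confocal images after fixation in 4% paraformaldehyde and Hoechst 33342 nuclear staining. Compounds were applied in dose-response to stably expressing cells seeded one day earlier; three independent experiments with duplicate wells.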"}, "[2]": {"tested_on": "mCherry-GAL9 expressing HeLa cells", "assay": "GAL9 recruitment assay, HeLa", "details": "calculated mean from >3 independent exp.", "in_short": "as §1"}, "[3]": {"tested_on": "mCherry-GAL9 expressing HepG2 cells", "assay": "GAL9 recruitment assay, HepG2", "details": "calculated mean from >3 independent exp.", "in_short": "as §1"}, "[4]": {"tested_on": "mCherry-GAL9 expressing U2OS cells", "assay": "GAL9 recruitment assay, U2OS", "details": "calculated mean from >3 independent exp.", "in_short": "as §1"}, "[5]": {"tested_on": "HeLa_Luc705 cells (pLuc/705 splice-switching reporter)", "assay": "Functional 705-SSO delivery, luciferase splice-switching assay", "details": "for Luciferase expression compared to reference: mean from >3 independent experiments", "in_short": "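Cells seeded at 10,000/well were pre-incubated 24 h with 1–2 μM 2′-O-methyl phosphorothioate 705-SSO, then exposed to endosomal escape enhancer at the stated concentrations. After 24 h, cells were lysed in 0.1% Triton X-100 and firefly luciferase luminescence was read as the splice-correction signal. LF2000 lipofection with 100–200 nM SSO served as transfection control.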"}}, "data": [{"smiles": "COc1nn(C2CCNCC2)cc1Nc1ncc(F)c(-n2ccc3c(C#N)cccc32)n1", "note": "[EEE4]", "values": [{"measurement": "Gal9 response compared to reference", "setting": "[1]; EEE 0.31 µM", "value": 0.027}, {"measurement": "Gal9 response compared to reference", "setting": "[1]; EEE 0.62 µM", "value": 0.243}, {"measurement": "Gal9 response compared to reference", "setting": "[1]; EEE 1.25 µM", "value": 0.648}, {"measurement": "Gal9 response compared to reference", "setting": "[1]; EEE 2.5 µM", "value": 0.678}, {"measurement": "Gal9 response compared to reference", "setting": "[1]; EEE 5 µM", "value": 0.396}, {"measurement": "Gal9 response compared to reference", "setting": "[1]; EEE 10 µM", "value": 0.222}, {"measurement": "Gal9 response compared to reference", "setting": "[2]; EEE 0.31 µM", "value": 0.005}, {"measurement": "Gal9 response compared to reference", "setting": "[2]; EEE 0.62 µM", "value": 0.011}, {"measurement": "Gal9 response compared to reference", "setting": "[2]; EEE 1.25 µM", "value": 0.246}, {"measurement": "Gal9 response compared to reference", "setting": "[2]; EEE 2.5 µM", "value": 0.481}, {"measurement": "Gal9 response compared to reference", "setting": "[2]; EEE 5 µM", "value": 0.168}, {"measurement": "Gal9 response compared to reference", "setting": "[2]; EEE 10 µM", "value": 0.058}, {"measurement": "Gal9 response compared to reference", "setting": "[3]; EEE 0.31 µM", "value": 0.010}, {"measurement": "Gal9 response compared to reference", "setting": "[3]; EEE 0.62 µM", "value": 0.014}, {"measurement": "Gal9 response compared to reference", "setting": "[3]; EEE 1.25 µM", "value": 0.030}, {"measurement": "Gal9 response compared to reference", "setting": "[3]; EEE 2.5 µM", "value": 0.410}, {"measurement": "Gal9 response compared to reference", "setting": "[3]; EEE 5 µM", "value": 0.444}, {"measurement": "Gal9 response compared to reference", "setting": "[3]; EEE 10 µM", "value": 0.480}, {"measurement": "Gal9 response compared to reference", "setting": "[4]; EEE 0.31 µM", "value": 0.014}, {"measurement": "Gal9 response compared to reference", "setting": "[4]; EEE 0.62 µM", "value": 0.019}, {"measurement": "Gal9 response compared to reference", "setting": "[4]; EEE 1.25 µM", "value": 0.083}, {"measurement": "Gal9 response compared to reference", "setting": "[4]; EEE 2.5 µM", "value": 0.332}, {"measurement": "Gal9 response compared to reference", "setting": "[4]; EEE 5 µM", "value": 0.572}, {"measurement": "Gal9 response compared to reference", "setting": "[4]; EEE 10 µM", "value": 0.561}, {"measurement": "SSO-mediated splice-switching upon co-treatment with bafilomycin A1", "setting": "[5]; EEE4 + bafilomycin (0.5 μM) co-incubation", "value": "significantly reduced"}, {"measurement": "Luciferase expression compared to reference", "setting": "[5]; HeLa-Luc705 + 1 µM SSO, EEE 0.5 µM", "value": 3.610}, {"measurement": "Luciferase expression compared to reference", "setting": "[5]; HeLa-Luc705 + 1 µM SSO, EEE 2 µM", "value": 139.083}, {"measurement": "Luciferase expression compared to reference", "setting": "[5]; HeLa-Luc705 + 1 µM SSO, EEE 4 µM", "value": 39.821}, {"measurement": "Luciferase expression compared to reference", "setting": "[5]; HeLa-Luc705 + 1 µM SSO, EEE 5 µM", "value": 13.700}, {"measurement": "Luciferase expression compared to reference", "setting": "[5]; HeLa-Luc705 + 2 µM SSO, EEE 5 µM", "value": 0.020}, {"measurement": "Splice-switching with 24-h SSO pre-incubation relative to SSO co-treatment", "setting": "[5]; dose response, luciferase readout at time points after EEE addition", "value": 20, "unit": "times"}, {"measurement": "Splice-switching enhancement", "setting": "[5]; using 2–2.5 μM EEE", "value": "above 100 fold"}]}]}
